Calls of active or inactive are those of the source. How the calls were made is not given here.
system: not listed separately; assay: rescue of alpha-synuclein yeast toxicity, dose response, S. cerevisiae, plate reader, cherry-pick (AID 602273); conditions: S. cerevisiae alpha-synuclein toxicity rescue, OD600 growth, 24 h; at 12 µM (top of the series)

Compound | growth rescue activity
O=C(NC1C(=O)NNC1c1ccccc1)c1ccccc1 (centres undefined) | 8.13% (inactive)

same assay, conditions: S. cerevisiae alpha-synuclein toxicity rescue, OD600 growth, 24 h; at 26 µM (top of the series)

Compound | growth rescue activity
CCOC(=O)c1c(C)c(C(=O)Nc2ccc3c(c2)OCO3)c(C)n1C | 2.62% (inactive)
CC(OC(=O)/C=C/c1ccc2ccccc2n1)C(=O)NCc1ccccc1 (centres undefined) | 3.64% (inactive)
O=C(O)C1CCCCC1C(=O)Nc1ccc2c(c1)CCC2 (centres undefined) | -2.7% (inactive)
CN(Cc1ccccc1)C(=O)c1cc(-c2ccc(Br)cc2)on1 | -17.2% (inactive)
CCN1C(=O)CC(N2CCN(c3ccc(C(=O)c4ccccc4)cc3)CC2)C1=O (centres undefined) | -0.853% (inactive)
CCOC(=S)SCC(=O)Nc1nc(C)c(C)s1 | 0.308% (inactive)
O=C(CSCc1ccc(Br)cc1)N1CCCC1 | 0.808% (inactive)
CCC(=O)Nc1cccc(C(=O)/C=C/c2ccc(F)cc2)c1 | -9.73% (inactive)
Cc1ccc(CN2CCN(CC(C)C)C(CCO)C2)s1 (centres undefined) | -1.18% (inactive)
COc1ccc(C(c2c(O)ccc3ccccc23)N2CCOCC2)c(OC)c1 (centres undefined) | -24.5% (inactive)
CNc1nc(Nc2ccc(C)c(Cl)c2)nc(N)c1[N+](=O)[O-] | -8.67% (inactive)
Cn1c(=O)c(/C=C/c2ccc(F)cc2)nc2ccccc21 | 8.65% (inactive)
O=C(NCCN1Cc2ccccc2C1=O)c1cccs1 | -6.05% (inactive)
Cc1ccc(O)c(NC(=O)c2onc(C)c2Cl)c1 | 6.44% (inactive)
O=c1[nH]c2ccccc2n1CCC1CCCCC1 | 8.15% (inactive)
O=C1NC(=O)[C@]2(Cc3ccccc3N3CCN(c4ccccc4)CC32)C(=O)N1Cc1ccccc1 (some centres undefined) | 3.15% (inactive)
Cc1ccc(N2C(=O)SC(N(CC(=O)O)c3ccc(C)cc3)C2=O)cc1 (centres undefined) | -2.3% (inactive)
O=C(CCC1CCCN(C(=O)c2ccc3cc[nH]c3c2)C1)NCc1ccc(F)c(F)c1 (centres undefined) | -2.77% (inactive)
CC(C)(C)c1cc(NC(=O)CCSc2nnc3ccccn23)cc(C(C)(C)C)c1 | 3.55% (inactive)
Cc1ccc(C2=Nc3ccccc3NC(C)(c3ccc(C)o3)C2)o1 (centres undefined) | 0.617% (inactive)
Cc1ccc(CN(C)C(=O)C2CCC(=O)N(CCc3ccccc3)C2)o1 (centres undefined) | 1.41% (inactive)
O=C1C2CC=CCC2C(=O)N1c1ccc(NCCc2ccccc2)c([N+](=O)[O-])c1 (centres undefined) | 11.8% (inactive)
Cc1ccc(O)c(CNc2nccs2)c1 | 12% (inactive)
O=c1c2ccccc2[nH]c(=S)n1CCC1=CCCCC1 | 21.3% (inactive)
CC1(C)CC(=O)C(=Cc2cn(-c3ccccc3)nc2-c2ccccc2)C(=O)C1 | 1.64% (inactive)
CC(C)CC(=O)Nc1ccc(N2CCOCC2)cc1 | 3.83% (inactive)

system: S. cerevisiae alpha-synuclein toxicity rescue, OD600 growth, 24 h; assay: as above; conditions: not given

Compound | AC40
CSc1sc(C(=O)Nc2ccc(F)cc2F)c2c1C=CCC2 | > 26 µM (inactive)
O=C1C=C(c2ccccc2)CC(/C=C/c2ccccc2)C1 (centres undefined) | > 12 µM (inactive)
O=c1[nH]c2ccccc2c2cn(-c3ccccc3)nc12 | 23.4 µM
CCOC(=O)c1nnsc1Nc1ccc(C)c(C)c1 | > 26 µM (inactive)
COc1cccc(CNc2ccc(Br)cn2)c1O | > 26 µM (inactive)
CN1CCN(Cc2c(O)ccc3cc(Br)ccc23)CC1 | > 26 µM (inactive)
CC(C)c1ccc(C2NC(=O)c3ccccc3O2)cc1 (centres undefined) | 12.1 µM
CC1(C)CC(=O)C=C(NC2=CC3OC(c4ccccc4)OCC3OC2=O)C1 (centres undefined) | > 26 µM (inactive)
O=[N+]([O-])c1cccc(-c2ncc3ccccn23)c1 | > 26 µM (inactive)
Cc1cc(-c2nc3ncccc3o2)ccc1NC(=S)NC(=O)C(C)C | > 26 µM (inactive)
O=C(CSc1nnc(-c2c[nH]c3ccccc23)o1)c1ccccc1 | > 26 µM (inactive)
COc1cccc(NC(=S)NC(=O)c2c(Cl)c(C)nn2C)c1 | > 26 µM (inactive)
Cc1ccccc1CSc1nsc(N)n1 | 14.5 µM
O=c1c2sccc2nc(SCc2ccc([N+](=O)[O-])cc2)n1Cc1ccccn1 | > 26 µM (inactive)
Clc1ccc(SCc2csc(N3CCOCC3)n2)cc1 | > 26 µM (inactive)
Fc1cc(NCc2ccccc2)nc(NCc2ccccc2)n1 | > 26 µM (inactive)
Cc1ccc2oc(C(=O)N3CCC(O)(c4cccc(C(F)(F)F)c4)CC3)c(C)c2c1 | > 26 µM (inactive)
